Assay: solvent given as SMILES

With `COc1ccc(-c2sc3c(-c4ccc(OC)cc4)c4n(c3c2-c2ccc(OC)cc2)[B-](F)(F)[N+]2=Cc3c(-c5ccc(OC)cc5)c5sc(-c6ccc(OC)cc6)c(-c6ccc(OC)cc6)c5n3[B-](F)(F)[N+]2=C4)cc1` the emission maximum (in CC#N) was 641 nm, the emission maximum (in CCCCCC) was 630 nm and the emission maximum (in CN(C)C=O) was 654 nm. For the same compound, the emission maximum (in Cc1ccccc1) was 649 nm and the emission maximum (in ClCCl) was 648 nm.

Compound `FC(F)(F)c1ccc2oc3nc4oc5ccc(N(c6ccccc6)c6ccccc6)cc5c4cc3c2c1` has an emission maximum (in ClC(Cl)Cl) of 487 nm.

In the case of `c1cc2c3c(c1)OCCCCCCOc1cccc(c1-c1c4ccccc4c-3c3ccccc13)OCCCCCCO2`, the emission maximum (in C1CCCCC1) is reported as 429 nm.

In the case of `COc1cccc(C2=C3C=C(/C=C/C(=O)OC(C)(C)C)C=[N+]3[B-](F)(F)n3cccc32)c1`, the emission maximum (in ClCCl) is reported as 581 nm.

`Cc1cc(-c2nnc(-c3c(C(C)C)cc(C(C)C)cc3C(C)C)o2)ccc1-n1c2ccccc2c2ccccc21` gave an emission maximum (in CCO) of 440 nm and an emission maximum (in Cc1ccccc1) of 375 nm.

With `CC(C)(C)c1cccc2c(O)cccc12` the emission maximum (in O) was 367 nm.

`CS1(C)C(/C=C/C2=C(c3ccc(C(=O)O)cc3)C(=C/C=C3/N(CCCCS(=O)(=O)[O-])c4ccccc4S3(C)C)/CCC2)=[N+](CCCCS(=O)(=O)[O-])c2ccccc21` gave an emission maximum (in CO) of 813 nm.

`C[Si](C)(C)c1cccc2c(C#N)cccc12` gave an emission maximum (in C1CCCCC1) of 333 nm.

Work on `CNc1cccc2c1-c1ccccc1C2=O` yielded an emission maximum (in C1CCCCC1) of 536 nm, an emission maximum (in CC#N) of 638 nm and an emission maximum (in CCO) of 686 nm. The emission maximum (in c1ccccc1) was 570 nm.

`c1ccc(C2=C(c3ccccc3)c3cccc4c3c(cc3nc5c(-c6ccccc6)ccc(-c6ccccc6)c5nc34)O2)cc1` showed an emission maximum (in ClCCl) of 551 nm.

`N#Cc1ccc(/C=C/c2ncc(-c3ccccc3)o2)cc1` gave an emission maximum (in ClCCl) of 450 nm.

With `O=P(c1ccccc1)(c1ccccc1)n1c2ccccc2c2cc(-n3c4ccccc4c4cc(-n5c6ccccc6c6ccccc65)ccc43)ccc21` the emission maximum (in C1CCOC1) was 373 nm, the emission maximum (in CC(C)=O) was 374 nm and the emission maximum (in Cc1ccccc1) was 373 nm. For the same compound, the emission maximum (in ClCCl) was 381 nm.

For `Clc1ccc2nc3cc4ccccc4cc3c(-c3ccccc3)c2c1`, the emission maximum (in ClCCl) was 527 nm.

Compound `CCCCn1c2ccc(-c3ccc4ccccc4c3)cc2c2ccc3c4cc(-c5ccc6ccccc6c5)ccc4n(CCCC)c3c21` has an emission maximum (in ClC(Cl)Cl) of 418 nm.

For `Cc1nc2c(ccc3c2sc(/C=C/c2ccc(-n4c5ccccc5c5ccccc54)cc2)[n+]3C)s1`, the emission maximum (in CO) was 607 nm and the emission maximum (in ClC(Cl)Cl) was 638 nm.

With `COc1ccc(/C=C/C2=[O+][B-](F)(F)OC(/C=C/c3ccc(OC)cc3)=C2c2ccc(OC)cc2)cc1` the emission maximum (in ClCCl) was 571 nm.

For `N#C/C(=C/Nc1ccc(C#N)cc1)c1nc(-c2ccccc2)cs1`, the emission maximum (in CCO) was 434 nm, the emission maximum (in CN(C)C=O) was 436 nm and the emission maximum (in Cc1ccccc1) was 438 nm. It also gave an emission maximum (in ClCCl) of 437 nm.

`CN(C)c1ccc2c(c1)C(=O)NC2=O` gave an emission maximum (in C1CCOC1) of 459 nm, an emission maximum (in C1COCCO1) of 457 nm and an emission maximum (in CC#N) of 490 nm. The emission maximum (in CC(C)(C)O) was 516 nm, the emission maximum (in CC(C)=O) was 483 nm and the emission maximum (in CC(C)O) was 523 nm. The emission maximum (in CCOCC) was 440 nm, the emission maximum (in CO) was 534 nm and the emission maximum (in O) was 562 nm.

`CC1=C(C2=C(C)C(C)=[N+]3C2=Cc2cc(C)c(C)n2[B-]3(F)F)C2=Cc3cc(C)c(C)n3[B-](F)(F)[N+]2=C1C` gave an emission maximum (in ClCCl) of 598 nm.

For `c1ccc(-n2c3ccccc3c3ccccc32)cc1`, the emission maximum (in CCO) was 344 nm.

For `Cc1cc(-n2c3ccccc3c3cc4c(cc32)C2c3ccccc3C4c3ccccc32)ccc1-c1nc(-c2ccccc2)nc(-c2ccccc2)n1`, the emission maximum (in Cc1ccccc1) was 429 nm and the emission maximum (in O=P(c1ccccc1)(c1ccccc1)c1ccccc1Oc1ccccc1P(=O)(c1ccccc1)c1ccccc1) was 444 nm.

Work on `CCCCN1C(=O)c2cccc3c(C#CC#Cc4ccc5c6c(cccc46)C(=O)N(CCCC)C5=O)ccc(c23)C1=O` yielded an emission maximum (in ClCCl) of 432 nm.

For `N#Cc1c(C#N)c2cc(F)ccc2c2ccc(F)cc12`, the emission maximum (in ClC(Cl)Cl) was 374 nm.

For `CC(=O)c1nc(-c2ccc(N(C)C)cc2)oc1C`, the emission maximum (in CC#N) was 376 nm, the emission maximum (in CCO) was 377 nm and the emission maximum (in CCOC(C)=O) was 370 nm. For the same compound, the emission maximum (in CCOCC) was 368 nm and the emission maximum (in ClCCl) was 373 nm.

`COC(=O)c1[nH]c(-c2ccccc2)c2nnc3c4ccccc4oc3c12` showed an emission maximum (in ClCCl) of 473 nm.

In the case of `COC(=O)C1CCN(c2ccc3c(N4CCCCC4)c4ccc(=[N+]5CCC(C(=O)OC)CC5)cc-4oc3c2)CC1` (stereo not given), the emission maximum (in ClCCl) is reported as 552 nm.

Compound `C[C@H](Nc1c2ccc(=[N+]3CCCCC3)cc-2oc2cc(N3CCCCC3)ccc12)C(=O)OC(C)(C)C` has an emission maximum (in ClCCl) of 544 nm.

`C1=Cc2ccccc2C(=Cc2ccc(C=C3c4ccccc4C=Cc4ccccc43)cc2)c2ccccc21` gave an emission maximum (in C1CCOC1) of 405 nm.

For `CCOC(CN1C(=O)C2=C(c3ccc(OC)c(OC)c3)N(CC(OCC)OCC)C(=O)C2=C1c1ccc(OC)c(OC)c1)OCC`, the emission maximum (in ClC(Cl)Cl) was 538 nm.

For `CCN(CC)c1cc2oc3cc(N(CC)CC)c(F)cc3c(=O)c2cc1F`, the emission maximum (in CCO) was 452 nm.

For `CCCCOc1ccc(/C=C/C2=[N+]3C(=C(c4ccc(I)cc4)c4c(/C=C/c5ccc(N(C)C)cc5)cc(/C=C/c5ccc(OC)cc5)n4[B-]3(F)F)C(/C=C/c3ccc(OCCOCCOC)cc3)=C2)cc1`, the emission maximum (in C1COCCO1) was 714 nm.

In the case of `CC1(C)c2ccccc2N(c2ccc3c(c2)c2cc(N4c5ccccc5C(C)(C)c5ccccc54)ccc2c2nc(C#N)c(C#N)nc32)c2ccccc21`, the emission maximum (in C1COCCO1) is reported as 753.65 nm, the emission maximum (in CCCCCC) is reported as 572.45 nm and the emission maximum (in Cc1ccccc1) is reported as 678 nm. For the same compound, the emission maximum (in O=P(c1ccccc1)(c1ccccc1)c1cccc(-c2cc(-n3c4ccccc4c4ccccc43)cc(-n3c4ccccc4c4ccccc43)c2)n1) was 618 nm.

In the case of `CCNc1ccc2c(C(F)(F)F)cc(=O)oc2c1`, the emission maximum (in C1CCC2CCCCC2C1) is reported as 420 nm, the emission maximum (in C1CCCCC1) is reported as 417 nm and the emission maximum (in CC1CCCCC1) is reported as 417 nm. For the same compound, the emission maximum (in CC#N) was 485 nm, the emission maximum (in CC(C)=O) was 485 nm and the emission maximum (in CC(C)O) was 490 nm. For the same compound, the emission maximum (in CCC(C)CC) was 415 nm, the emission maximum (in CCCC(C)C) was 415 nm and the emission maximum (in CCCCCC) was 417 nm. It also gave an emission maximum (in CCCCCCO) of 490 nm, an emission maximum (in CCCCO) of 493 nm and an emission maximum (in CCO) of 500 nm. It also gave an emission maximum (in CCOC(C)=O) of 478 nm and an emission maximum (in CO) of 500 nm.

For `C[Si]1(C)c2ccc(-c3cccs3)cc2C=Cc2cc(-c3cccs3)ccc21`, the emission maximum (in ClCCl) was 373 nm.

`CCOC(=O)c1cc(C(=O)OCC)c2ccc(C)cc2n1` showed an emission maximum (in CCO) of 422 nm.

Work on `CC1(C)Cc2c(c3ccccc3c3nc4ccccc4nc23)O1` yielded an emission maximum (in C1CCCCC1) of 475.96 nm, an emission maximum (in C1CCOC1) of 505.05 nm and an emission maximum (in CN(C)C=O) of 521.92 nm. It also gave an emission maximum (in CO) of 529.1 nm, an emission maximum (in ClC(Cl)Cl) of 505.05 nm and an emission maximum (in c1ccccc1) of 483.09 nm.

With `C[Si]1(C)c2ccc(C#Cc3ccccc3)cc2C=Cc2cc(C#Cc3ccccc3)ccc21` the emission maximum (in ClCCl) was 375 nm.

For `O=C1C2=C(O[B-](F)(F)[n+]3c2ccc2ccccc23)c2cccc3c(N4CCOCC4)ccc1c23`, the emission maximum (in C1CCOC1) was 596 nm, the emission maximum (in CC#N) was 620 nm and the emission maximum (in CCO) was 584 nm. For the same compound, the emission maximum (in CO) was 564 nm and the emission maximum (in ClCCl) was 588 nm.

Work on `N#Cc1cnc(-c2c3ccccc3c(-c3ncc(C#N)cn3)c3ccccc23)nc1` yielded an emission maximum (in CCO) of 503 nm and an emission maximum (in ClCCl) of 500 nm.

Compound `COc1ccc(C2=N/C(=C\c3ccccc3)C(=O)O2)cc1OC` has an emission maximum (in C1COCCO1) of 447 nm.

`c1ccc(-c2nc(-c3ccccc3)nc(-n3c4ccccc4c4cc(-n5c6ccccc6c6ccccc65)cc(-n5c6ccccc6c6ccccc65)c43)n2)cc1` showed an emission maximum (in C1CCOC1) of 482.53 nm and an emission maximum (in Cc1ccccc1) of 465.06 nm.

`CC(C)(C)C1CCC(=CS/C=C/c2ccc(-c3ccc(/C=C/SC=C4CCC(C(C)(C)C)CC4)cc3)cc2)CC1` (stereo not given) gave an emission maximum (in ClCCl) of 432 nm.

`COc1ccc(O)c(-c2[nH]c(=O)n3c2-c2ccccc2C3=O)c1` showed an emission maximum (in CC#N) of 480 nm, an emission maximum (in CO) of 500 nm and an emission maximum (in ClCCl) of 481 nm.

For `COc1cc(OC)c2c(c1)c1c(c3ccc(C(C)(C)C)cc32)=[N+]2C(=Nc3c(-c4cc(OC)c(OC)c(OC)c4)c4c5cc(OC)cc(OC)c5c5cc(C(C)(C)C)ccc5c4n3[B-]2(F)F)C=1c1cc(OC)c(OC)c(OC)c1`, the emission maximum (in Cc1ccccc1) was 809 nm.

Compound `O=c1oc2ccccc2c2c1c(=O)oc1cc(O)c3ccccc3c12` has an emission maximum (in ClCCl) of 529 nm.

`CC1(C)[C@@H]2CC[C@]1(C)c1nc3cc(-c4cccs4)ccc3nc12` showed an emission maximum (in CC#N) of 418 nm, an emission maximum (in CCCCCC) of 402 nm and an emission maximum (in CCCCO) of 442 nm. It also gave an emission maximum (in CCO) of 446 nm, an emission maximum (in CCOC(C)=O) of 406 nm and an emission maximum (in CO) of 451 nm. The emission maximum (in Cc1ccccc1) was 402 nm, the emission maximum (in ClC(Cl)Cl) was 415 nm and the emission maximum (in ClCCl) was 413 nm.

Compound `CC(C)(C)c1cc2ccc3cc(C(C)(C)C)cc4c(N(c5ccccc5)c5ccccc5)cc(c1)c2c34` has an emission maximum (in C1CCOC1) of 455.01 nm, an emission maximum (in CC#N) of 483.88 nm and an emission maximum (in CCCCCC) of 415 nm.

Compound `COc1ccc(-c2cc3c(s2)c(C(=O)c2ccccc2)cc(=O)n3Cc2ccccc2)cc1` has an emission maximum (in CC#N) of 558 nm and an emission maximum (in ClCCl) of 547 nm.

For `CC(C)[Si](C#Cc1c2nc3ccccc3nc2c(C#C[Si](C(C)C)(C(C)C)C(C)C)c2nc3c(ccc4cc5ccccc5cc43)nc12)(C(C)C)C(C)C`, the emission maximum (in CCCCCC) was 648 nm.

In the case of `COC(=O)[C@H](Cc1ccc2oc3c(c2c1)=CC1=C(c2ccc(OC)cc2)c2cc4c5cc(C[C@H](NC(=O)OC(C)(C)C)C(=O)OC)ccc5oc4n2[B-](F)(F)[N+]=31)NC(=O)OC(C)(C)C`, the emission maximum (in C1CCCCC1) is reported as 596.5 nm, the emission maximum (in CCOC(C)=O) is reported as 597 nm and the emission maximum (in CO) is reported as 595 nm.

Compound `CC(C)(C)c1ccc(-c2c(-c3ccc(N(c4ccccc4)c4ccccc4)cc3)c(C#N)c(-c3ccc(N(c4ccccc4)c4ccccc4)cc3)c(-c3ccc(C(C)(C)C)cc3)c2-c2ccc(C(C)(C)C)cc2)cc1` has an emission maximum (in C1CCOC1) of 443 nm.

Compound `Cc1c(C)n2c(COC(=O)c3ccccc3O)c(C)c(=O)n2c1=O` has an emission maximum (in CCO) of 465 nm.

`Cc1ccc(-c2cc3ccccc3oc2=O)cc1` gave an emission maximum (in C1CCOC1) of 410 nm, an emission maximum (in CCCCCC) of 425 nm and an emission maximum (in CCO) of 408 nm. The emission maximum (in CS(C)=O) was 409 nm.

In the case of `Clc1nc(Nc2ccccc2)nc(Nc2ccc3cc4ccccc4cc3c2)n1`, the emission maximum (in C1COCCO1) is reported as 436 nm, the emission maximum (in CC#N) is reported as 432 nm and the emission maximum (in CCCCOCCCC) is reported as 430 nm. The emission maximum (in CCOC(C)=O) was 433 nm.
